From US20220281848A1, “PYRAZOLE-SUBSTITUTED PYRROLIDINONES AS HERBICIDES” (FMC Corporation, priority 2019, published 2022)

Test system: plants
Assay: Test D pre-emergence, other plants of Tables D1 and D3
Format: in vivo
Settings: for damage to plant, ALOMY / damage to plant, AVEFA / damage to plant, BEAVA / damage to plant, BROTE / damage to plant, BRSNN / damage to plant, CHEAL / damage to plant, GALAP / damage to plant, HORVW / damage to plant, KCHSC / damage to plant, LOLPE / damage to plant, POAAN / damage to plant, POLCO / damage to plant, SINAR / damage to plant, STEME / damage to plant, VERPE: pre-emergence, 100=total damage, 0=no damage
Description: A formulation containing 50 g/L of the test chemical was prepared by dissolving the active ingredient in a mixture of organic solvents and emulsifier, details of which are provided in the table. This formulation was then mixed with a small, variable amount of acetone to aid dissolution, before addition of a 0.2% v/v aqueous solution of an adjuvant, as the aqueous diluent, to form an aqueous spray solution which contains a predetermined concentration of the active ingredient.
This aqueous spray solution was then sprayed onto plants including maize and wheat that had been seed treated with a herbicide safener, after one day's cultivation (for pre-emergence) or after about 12 days' cultivation (for post-emergence). The plants were grown from seeds sown in standard soil, placed in a glasshouse under controlled conditions (at 24/18° C. or 20/16° C., day/night; 16 h light; 65% humidity). After spray application the plants were then grown in a glasshouse under the same conditions and watered twice daily. After 15 d for post-emergence and 20 DAA for pre-emergence the test was evaluated (100=total damage to plant; 0=no damage to plant).

CN1CC(c2cc(C(F)(F)F)n(C)n2)C(C(=O)Nc2ccc(F)c(F)c2F)C1=O (racemic) [Compound 17]
damage to plant (100=total damage to plant; 0=no damage to plant), SORVU (SORVU, preemergent, rate 500, 20 DAA): 0
damage to plant, ALOMY (rate 15, 20 DAA): 0
damage to plant, AVEFA (rate 15, 20 DAA): 0
damage to plant, BEAVA (rate 15, 20 DAA): 0
damage to plant, BROTE (rate 15, 20 DAA): 0
damage to plant, BRSNN (rate 15, 20 DAA): 0
damage to plant, CHEAL (rate 15, 20 DAA): 0
damage to plant, GALAP (rate 15, 20 DAA): 0
damage to plant, HORVW (rate 15, 20 DAA): 0
damage to plant, KCHSC (rate 15, 20 DAA): 0
damage to plant, LOLPE (rate 15, 20 DAA): 0
damage to plant, POAAN (rate 15, 20 DAA): 0
damage to plant, POLCO (rate 15, 20 DAA): 0
damage to plant, SINAR (rate 15, 20 DAA): 0
damage to plant, STEME (rate 15, 20 DAA): 0
damage to plant, VERPE (rate 15, 20 DAA): 0
damage to plant, ALOMY (rate 30, 20 DAA): 0
damage to plant, AVEFA (rate 30, 20 DAA): 0
damage to plant, BEAVA (rate 30, 20 DAA): 0
damage to plant, BROTE (rate 30, 20 DAA): 0
damage to plant, BRSNN (rate 30, 20 DAA): 0
damage to plant, CHEAL (rate 30, 20 DAA): 0
damage to plant, GALAP (rate 30, 20 DAA): 0
damage to plant, HORVW (rate 30, 20 DAA): 0
damage to plant, KCHSC (rate 30, 20 DAA): 0
damage to plant, LOLPE (rate 30, 20 DAA): 0
damage to plant, POAAN (rate 30, 20 DAA): 20
damage to plant, POLCO (rate 30, 20 DAA): 0
damage to plant, SINAR (rate 30, 20 DAA): 0
damage to plant, STEME (rate 30, 20 DAA): 0
damage to plant, VERPE (rate 30, 20 DAA): 0
damage to plant, ALOMY (rate 60, 20 DAA): 0
damage to plant, AVEFA (rate 60, 20 DAA): 0
damage to plant, BEAVA (rate 60, 20 DAA): 0
damage to plant, BROTE (rate 60, 20 DAA): 0
damage to plant, BRSNN (rate 60, 20 DAA): 0
damage to plant, GALAP (rate 60, 20 DAA): 0
damage to plant, HORVW (rate 60, 20 DAA): 0
damage to plant, KCHSC (rate 60, 20 DAA): 0
damage to plant, LOLPE (rate 60, 20 DAA): 20
damage to plant, POAAN (rate 60, 20 DAA): 30
damage to plant, POLCO (rate 60, 20 DAA): 0
damage to plant, SINAR (rate 60, 20 DAA): 0
damage to plant, STEME (rate 60, 20 DAA): 0
damage to plant, VERPE (rate 60, 20 DAA): 0
damage to plant, ALOMY (rate 130, 20 DAA): 50
damage to plant, AVEFA (rate 130, 20 DAA): 60
damage to plant, BEAVA (rate 130, 20 DAA): 0
damage to plant, BROTE (rate 130, 20 DAA): 0
damage to plant, BRSNN (rate 130, 20 DAA): 0
damage to plant, CHEAL (rate 130, 20 DAA): 50
damage to plant, GALAP (rate 130, 20 DAA): 0
damage to plant, HORVW (rate 130, 20 DAA): 10
damage to plant, KCHSC (rate 130, 20 DAA): 0
damage to plant, LOLPE (rate 130, 20 DAA): 40
damage to plant, POAAN (rate 130, 20 DAA): 70
damage to plant, POLCO (rate 130, 20 DAA): 0
damage to plant, SINAR (rate 130, 20 DAA): 0
damage to plant, STEME (rate 130, 20 DAA): 10
damage to plant, VERPE (rate 130, 20 DAA): 30
damage to plant, ALOMY (rate 250, 20 DAA): 60
damage to plant, AVEFA (rate 250, 20 DAA): 70
damage to plant, BEAVA (rate 250, 20 DAA): 0
damage to plant, BROTE (rate 250, 20 DAA): 40
damage to plant, BRSNN (rate 250, 20 DAA): 0
damage to plant, CHEAL (rate 250, 20 DAA): 60
damage to plant, GALAP (rate 250, 20 DAA): 0
damage to plant, HORVW (rate 250, 20 DAA): 40
damage to plant, KCHSC (rate 250, 20 DAA): 10
damage to plant, LOLPE (rate 250, 20 DAA): 80
damage to plant, POAAN (rate 250, 20 DAA): 80
damage to plant, POLCO (rate 250, 20 DAA): 20
damage to plant, SINAR (rate 250, 20 DAA): 0
damage to plant, STEME (rate 250, 20 DAA): 30
damage to plant, VERPE (rate 250, 20 DAA): 60
damage to plant, ALOMY (rate 500, 20 DAA): 80
damage to plant, AVEFA (rate 500, 20 DAA): 80
damage to plant, BEAVA (rate 500, 20 DAA): 10
damage to plant, BROTE (rate 500, 20 DAA): 60
damage to plant, BRSNN (rate 500, 20 DAA): 20
damage to plant, CHEAL (rate 500, 20 DAA): 70
damage to plant, GALAP (rate 500, 20 DAA): 20
damage to plant, HORVW (rate 500, 20 DAA): 90
damage to plant, KCHSC (rate 500, 20 DAA): 30
damage to plant, LOLPE (rate 500, 20 DAA): 80
damage to plant, POAAN (rate 500, 20 DAA): 90
damage to plant, POLCO (rate 500, 20 DAA): 30
damage to plant, SINAR (rate 500, 20 DAA): 0
damage to plant, STEME (rate 500, 20 DAA): 60
damage to plant, VERPE (rate 500, 20 DAA): 90
